3 compounds from publication PMC4685510, “A Cell Biologist’s Field Guide to Aurora Kinase Inhibitors” (Frontiers in Oncology, 2015) can be followed below.

Where two headings read alike, the source gives them in different places.

Common to all, as to test: biochemical
What all share (format): biochemical

Test [1] has as its target 363 human kinases (including Aurora A/B/C) (Homo sapiens, UniProt O95747). Conditions: OSR1/OXSR1; for remaining activity at 0.1 µM: 100 nM.
Source text: (§1) However, the Aurora A/B selectivity ratios derived from our in vitro and in vivo data can be compared to prioritize inhibitors.
The target in test [2] is 363 human kinases (including Aurora A/B/C) (Homo sapiens, UniProt P11309). Particulars: PIM1; for remaining activity at 0.5 µM / remaining activity at 0.1 µM: read-out: % Enzyme Activity (relative to DMSO controls); for remaining activity at 0.1 µM: 100 nM.
Sequence of 363 human kinases (including Aurora A/B/C) (Homo sapiens, UniProt P11309) (P11309 whole entry): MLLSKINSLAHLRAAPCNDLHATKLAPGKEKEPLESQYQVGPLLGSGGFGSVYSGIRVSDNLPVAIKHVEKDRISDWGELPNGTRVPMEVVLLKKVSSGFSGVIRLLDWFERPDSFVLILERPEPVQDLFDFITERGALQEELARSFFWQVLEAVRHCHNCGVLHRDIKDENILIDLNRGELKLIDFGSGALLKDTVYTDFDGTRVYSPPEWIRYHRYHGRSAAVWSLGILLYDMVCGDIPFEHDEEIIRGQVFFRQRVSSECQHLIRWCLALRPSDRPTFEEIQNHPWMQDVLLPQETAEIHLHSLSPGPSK
Source text: as §1
Test [3] has as its target T1, 363 human kinases (including Aurora A/B/C) (Homo sapiens, UniProt O60285).
T1 sequence (O60285 1-661): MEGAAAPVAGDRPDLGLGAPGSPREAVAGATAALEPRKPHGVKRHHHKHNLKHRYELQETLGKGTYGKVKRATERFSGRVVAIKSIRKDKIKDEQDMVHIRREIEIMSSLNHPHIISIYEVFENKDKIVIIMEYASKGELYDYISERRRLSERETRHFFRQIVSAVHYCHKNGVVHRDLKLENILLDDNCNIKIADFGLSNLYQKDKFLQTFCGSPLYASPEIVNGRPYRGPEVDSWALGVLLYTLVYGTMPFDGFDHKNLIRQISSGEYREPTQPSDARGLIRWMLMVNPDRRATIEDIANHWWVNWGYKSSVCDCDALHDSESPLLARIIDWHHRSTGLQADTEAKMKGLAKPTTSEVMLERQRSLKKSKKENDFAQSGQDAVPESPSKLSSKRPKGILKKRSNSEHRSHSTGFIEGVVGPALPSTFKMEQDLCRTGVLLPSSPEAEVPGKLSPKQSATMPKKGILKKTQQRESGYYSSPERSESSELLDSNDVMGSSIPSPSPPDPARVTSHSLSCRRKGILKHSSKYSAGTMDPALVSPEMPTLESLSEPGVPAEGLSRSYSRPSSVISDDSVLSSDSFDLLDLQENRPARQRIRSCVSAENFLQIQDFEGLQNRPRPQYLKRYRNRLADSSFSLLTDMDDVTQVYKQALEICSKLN
Particulars: ARK5/NUAK1, [ATP] 30 µM; for remaining activity at 0.5 µM / remaining activity at 0.1 µM: read-out: % Enzyme Activity (relative to DMSO controls); for remaining activity at 0.1 µM: 100 nM.
Source text: as §1

Test [4] addresses 363 human kinases (including Aurora A/B/C) (Homo sapiens, UniProt P06493). Conditions: for % Enzyme Activity (relative to DMSO controls) / remaining activity at 0.5 µM: 500 nM; for remaining activity at 0.5 µM / remaining activity at 0.1 µM: read-out: % Enzyme Activity (relative to DMSO controls); for remaining activity at 0.1 µM: 100 nM.
Source text: as §1
Test [5] deals with T2, 363 human kinases (including Aurora A/B/C) (Homo sapiens, UniProt P51955).
T2 sequence (P51955 1-445): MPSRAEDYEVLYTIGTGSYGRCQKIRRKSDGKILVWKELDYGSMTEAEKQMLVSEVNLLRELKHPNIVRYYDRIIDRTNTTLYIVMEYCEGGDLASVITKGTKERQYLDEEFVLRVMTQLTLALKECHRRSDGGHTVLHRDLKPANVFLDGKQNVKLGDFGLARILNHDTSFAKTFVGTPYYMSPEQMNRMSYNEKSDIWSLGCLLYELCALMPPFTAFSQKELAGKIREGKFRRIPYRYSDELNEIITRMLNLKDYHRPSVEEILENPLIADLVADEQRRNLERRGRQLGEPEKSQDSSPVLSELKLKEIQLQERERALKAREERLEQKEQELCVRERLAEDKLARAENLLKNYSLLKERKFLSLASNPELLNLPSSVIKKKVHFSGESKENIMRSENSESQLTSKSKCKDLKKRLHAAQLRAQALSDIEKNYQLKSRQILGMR
Particulars: NEK2; for remaining activity at 0.5 µM / remaining activity at 0.1 µM: read-out: % Enzyme Activity (relative to DMSO controls); for remaining activity at 0.1 µM: 100 nM.
Source text: as §1

In test [6] the target is T3, 363 human kinases (including Aurora A/B/C) (Homo sapiens, UniProt O43318).
T3 sequence (O43318 1-606): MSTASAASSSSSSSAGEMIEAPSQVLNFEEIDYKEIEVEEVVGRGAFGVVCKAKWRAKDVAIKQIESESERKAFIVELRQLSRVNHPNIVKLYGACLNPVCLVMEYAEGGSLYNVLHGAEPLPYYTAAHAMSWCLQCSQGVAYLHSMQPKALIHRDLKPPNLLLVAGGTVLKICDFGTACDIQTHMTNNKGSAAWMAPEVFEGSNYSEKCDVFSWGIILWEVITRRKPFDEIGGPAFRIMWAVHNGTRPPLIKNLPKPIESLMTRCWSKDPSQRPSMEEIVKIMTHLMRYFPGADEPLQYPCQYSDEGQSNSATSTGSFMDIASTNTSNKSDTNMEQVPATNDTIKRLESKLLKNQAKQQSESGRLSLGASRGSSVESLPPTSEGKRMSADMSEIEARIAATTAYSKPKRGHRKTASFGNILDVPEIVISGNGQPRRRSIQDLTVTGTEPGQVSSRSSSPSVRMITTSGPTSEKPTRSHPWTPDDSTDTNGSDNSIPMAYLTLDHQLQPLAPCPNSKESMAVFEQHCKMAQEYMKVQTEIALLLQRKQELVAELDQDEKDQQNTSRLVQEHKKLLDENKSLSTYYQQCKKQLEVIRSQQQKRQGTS
Conditions: TAK1; for remaining activity at 0.5 µM / remaining activity at 0.1 µM: read-out: % Enzyme Activity (relative to DMSO controls); for remaining activity at 0.1 µM: 100 nM.
Source text: as §1

Test [7] addresses 363 human kinases (including Aurora A/B/C) (Homo sapiens, UniProt P14616). Particulars: IRR/INSRR; for remaining activity at 0.5 µM / remaining activity at 0.1 µM: read-out: % Enzyme Activity (relative to DMSO controls); for remaining activity at 0.1 µM: 100 nM.
Source text: as §1
Test [8] deals with 363 human kinases (including Aurora A/B/C) (Homo sapiens, UniProt P51812). Particulars: RSK2; for remaining activity at 0.5 µM / remaining activity at 0.1 µM: read-out: % Enzyme Activity (relative to DMSO controls); for remaining activity at 0.1 µM: 100 nM.
Sequence of 363 human kinases (including Aurora A/B/C) (Homo sapiens, UniProt P51812) (P51812 whole entry): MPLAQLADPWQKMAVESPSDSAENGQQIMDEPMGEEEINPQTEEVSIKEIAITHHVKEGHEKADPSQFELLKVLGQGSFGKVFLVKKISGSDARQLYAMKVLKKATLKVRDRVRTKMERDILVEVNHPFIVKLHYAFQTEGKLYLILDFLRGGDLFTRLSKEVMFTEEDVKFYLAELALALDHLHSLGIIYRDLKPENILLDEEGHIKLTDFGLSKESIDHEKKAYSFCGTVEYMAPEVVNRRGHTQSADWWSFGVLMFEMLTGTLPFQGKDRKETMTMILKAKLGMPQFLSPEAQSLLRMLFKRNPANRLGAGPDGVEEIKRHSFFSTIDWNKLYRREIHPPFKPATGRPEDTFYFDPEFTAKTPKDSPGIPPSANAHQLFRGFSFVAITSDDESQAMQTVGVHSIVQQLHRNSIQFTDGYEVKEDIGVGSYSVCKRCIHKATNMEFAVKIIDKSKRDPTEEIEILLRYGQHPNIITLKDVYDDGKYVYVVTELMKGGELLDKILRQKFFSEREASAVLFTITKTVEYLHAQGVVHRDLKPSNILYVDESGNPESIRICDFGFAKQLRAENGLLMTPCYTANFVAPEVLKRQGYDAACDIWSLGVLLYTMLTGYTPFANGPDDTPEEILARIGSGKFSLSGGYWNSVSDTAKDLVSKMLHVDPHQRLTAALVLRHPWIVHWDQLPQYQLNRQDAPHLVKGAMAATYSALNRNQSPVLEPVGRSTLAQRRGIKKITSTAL
Source text: as §1
[9] abbreviates: read-out: % Enzyme Activity (relative to DMSO controls).

Sequence of 363 human kinases (including Aurora A/B/C) (Homo sapiens, UniProt O95747) (O95747 whole entry): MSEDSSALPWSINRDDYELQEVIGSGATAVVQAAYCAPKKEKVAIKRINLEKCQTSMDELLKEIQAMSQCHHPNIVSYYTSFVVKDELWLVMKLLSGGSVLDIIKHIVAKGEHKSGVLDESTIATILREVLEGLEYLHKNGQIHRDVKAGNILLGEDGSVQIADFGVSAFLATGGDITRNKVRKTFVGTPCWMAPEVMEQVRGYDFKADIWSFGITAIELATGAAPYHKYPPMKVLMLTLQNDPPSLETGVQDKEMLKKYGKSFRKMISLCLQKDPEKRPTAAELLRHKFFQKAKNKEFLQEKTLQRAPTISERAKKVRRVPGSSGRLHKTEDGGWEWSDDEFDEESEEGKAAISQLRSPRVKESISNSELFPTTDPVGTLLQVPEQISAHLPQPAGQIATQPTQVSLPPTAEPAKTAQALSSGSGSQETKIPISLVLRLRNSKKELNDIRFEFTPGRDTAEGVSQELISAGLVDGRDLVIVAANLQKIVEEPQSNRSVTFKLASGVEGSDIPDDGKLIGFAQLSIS
Sequence of 363 human kinases (including Aurora A/B/C) (Homo sapiens, UniProt P14616) (P14616 27-1297): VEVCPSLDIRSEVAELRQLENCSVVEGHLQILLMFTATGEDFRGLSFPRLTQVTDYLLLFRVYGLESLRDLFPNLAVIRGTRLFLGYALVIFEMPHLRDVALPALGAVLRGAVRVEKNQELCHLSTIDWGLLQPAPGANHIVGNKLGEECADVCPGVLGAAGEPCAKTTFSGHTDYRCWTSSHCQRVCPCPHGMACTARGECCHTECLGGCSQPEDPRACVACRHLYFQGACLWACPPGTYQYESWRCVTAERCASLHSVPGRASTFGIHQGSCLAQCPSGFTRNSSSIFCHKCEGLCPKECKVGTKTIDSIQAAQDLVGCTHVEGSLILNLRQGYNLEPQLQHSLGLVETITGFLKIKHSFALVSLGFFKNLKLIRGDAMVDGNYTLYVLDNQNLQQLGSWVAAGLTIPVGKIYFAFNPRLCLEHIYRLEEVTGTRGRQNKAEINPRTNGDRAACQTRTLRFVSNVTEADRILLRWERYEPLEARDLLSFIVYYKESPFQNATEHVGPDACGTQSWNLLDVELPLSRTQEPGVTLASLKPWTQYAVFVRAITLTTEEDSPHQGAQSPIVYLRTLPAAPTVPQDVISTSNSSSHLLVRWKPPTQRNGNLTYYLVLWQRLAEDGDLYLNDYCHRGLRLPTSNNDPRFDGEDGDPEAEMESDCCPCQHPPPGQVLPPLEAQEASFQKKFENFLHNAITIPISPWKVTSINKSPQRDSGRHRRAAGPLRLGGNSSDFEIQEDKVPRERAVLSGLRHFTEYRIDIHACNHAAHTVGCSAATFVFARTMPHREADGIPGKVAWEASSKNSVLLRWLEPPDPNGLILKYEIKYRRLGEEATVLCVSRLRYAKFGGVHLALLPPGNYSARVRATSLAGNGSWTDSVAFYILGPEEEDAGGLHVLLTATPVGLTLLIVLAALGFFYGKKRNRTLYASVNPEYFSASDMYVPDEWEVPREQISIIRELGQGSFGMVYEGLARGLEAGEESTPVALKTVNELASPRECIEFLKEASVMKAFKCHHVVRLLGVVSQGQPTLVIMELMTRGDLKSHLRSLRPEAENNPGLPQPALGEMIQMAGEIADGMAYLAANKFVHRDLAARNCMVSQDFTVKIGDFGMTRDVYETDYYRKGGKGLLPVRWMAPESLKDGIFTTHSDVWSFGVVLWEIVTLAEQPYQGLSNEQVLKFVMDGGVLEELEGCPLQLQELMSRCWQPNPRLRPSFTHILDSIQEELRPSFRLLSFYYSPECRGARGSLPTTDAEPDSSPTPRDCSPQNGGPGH
Sequence of 363 human kinases (including Aurora A/B/C) (Homo sapiens, UniProt P06493) (P06493 whole entry): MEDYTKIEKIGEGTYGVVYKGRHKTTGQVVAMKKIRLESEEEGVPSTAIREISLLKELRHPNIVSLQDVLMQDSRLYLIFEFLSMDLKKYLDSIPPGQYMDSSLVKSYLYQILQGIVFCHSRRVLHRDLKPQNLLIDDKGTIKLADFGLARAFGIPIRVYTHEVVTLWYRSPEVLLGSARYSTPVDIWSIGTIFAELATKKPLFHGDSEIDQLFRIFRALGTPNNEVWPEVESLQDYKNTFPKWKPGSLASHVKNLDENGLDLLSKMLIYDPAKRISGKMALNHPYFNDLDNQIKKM

On to `O=C(c1cccc(Cl)c1F)N1CCN(Cc2cccc(Nc3nccs3)n2)CC1` [MK-8745], for which the “% Enzyme Activity (relative to DMSO controls)” value in test [1] (500 nM) is 93.31%; in test [2] (500 nM), 98.06%; in test [3] (500 nM), 73.30%; in test [4] (CDK1/cyclin A, [ATP] 10 µM), 86.34%; in test [4] (CDK1/cyclin B, [ATP] 20 µM), 78.80%; in test [4] (CDK1/cyclin E, [ATP] 20 µM) it was 93.92%. Besides, the “% Enzyme Activity (relative to DMSO controls)” value in test [5] (500 nM) was found to be 103.20%; in test [6] (500 nM), 93.95%; in test [7] (500 nM), 75.20%; in test [8] (500 nM) it was 101.95%. Further, the remaining activity at 0.5 µM in test [1] (500 nM, read-out: % Enzyme Activity (relative to DMSO controls)) amounted to 93.3%; in test [2] (500 nM) it was 101%; in test [3] (500 nM) it was 76.7%; in test [4] (CDK1/cyclin A, [ATP] 10 µM) it was 86.8%; in test [4] (CDK1/cyclin B, [ATP] 20 µM), 79.4%; in test [4] (CDK1/cyclin E, [ATP] 20 µM) it was 94.9%. Besides, the remaining activity at 0.5 µM was 104% in test [5] (500 nM), 96.6% in test [6] (500 nM), 76.4% in test [7] (500 nM) and 105% in test [8] (500 nM).
Regarding `CCn1cc(-c2ccnc3[nH]c(-c4cccc(CN(C)C)c4)cc23)c(-c2ccc(NC(=O)N(C)C)cc2)n1` [GSK1070916], the remaining activity at 0.1 µM in test [1] (setting [9]) was found to be 95%; in test [2] it was 102%; in test [3] it was 92.5%; in test [4] (CDK1/cyclin A, [ATP] 10 µM) it was 106%; in test [4] (CDK1/cyclin B, [ATP] 20 µM), 84.6%; in test [4] (CDK1/cyclin E, [ATP] 20 µM), 100%. In addition, the remaining activity at 0.1 µM in test [5] was found to be 110%; in test [6], 99%; in test [7], 99.5%; in test [8], 107%.
For `O=C(O)[C@]1(Cc2cccc(Nc3nccs3)n2)CC[C@@H](Oc2cccc(Cl)c2F)CC1` [MK-5108], the remaining activity at 0.1 µM in test [1] (setting [9]) was 98.9%; in test [2] it was 92%; in test [3], 79.6%; in test [4] (CDK1/cyclin A, [ATP] 10 µM) it was 92.7%; in test [4] (CDK1/cyclin B, [ATP] 20 µM), 95.3%; in test [4] (CDK1/cyclin E, [ATP] 20 µM) it was 101%. Moreover, the remaining activity at 0.1 µM in test [5] is 84.3%; in test [6] it was 93.8%; in test [7], 81.7%; in test [8] it was 101%. Besides, the remaining activity at 0.5 µM was found to be 83.8% in test [2] (500 nM); 42.7% in test [3] (500 nM); 76.5% in test [4] (CDK1/cyclin A, [ATP] 10 µM); 64% in test [4] (CDK1/cyclin B, [ATP] 20 µM); 84.6% in test [4] (CDK1/cyclin E, [ATP] 20 µM); 105% in test [5] (500 nM). In addition, the remaining activity at 0.5 µM in test [6] (500 nM) was 79.1%; in test [7] (500 nM), 46.3%; in test [8] (500 nM), 99.5%.
